Measured values: a compilation of properties of binary mixtures (doi:10.1021/acs.jpcb.9b10454)

Experiment: xn = mol fraction of the nth substance listed
Conditions: 303.15 K, 100 kPa

CCn1cc[nH+]c1.O=S(=O)([N-]S(=O)(=O)C(F)(F)F)C(F)(F)F + c1c[nH]cn1
Conditions	electrical conductivity [S/m]	viscosity [mPa·s]
x1 = 0.194	0.891	–
x1 = 0.252	–	20.7
x1 = 0.333	–	23
x1 = 0.385	0.616	–
x1 = 0.501	–	25.3
x1 = 0.597	0.587	–
x1 = 0.601	–	25.6
x1 = 0.671	–	27.7
x1 = 0.79	0.556	–
x1 = 0.802	–	24.3
x1 = 0.889	0.512	–
x1 = 0.901	–	26.7
x1 = 1	–	38.8
